Source: US20250042983A1, “ANTI-LCN-2 ANTIBODIES AS A TREATMENT FOR EYE DISORDERS” (UNIVERSITY OF PITTSBURGH - OF THE COMMONWEALTH SYSTEM OF …, priority 2021, published 2025)
Entries after “also recorded” stand apart in the source; their conditions may differ. One block for each molecule: values may come before it.

Columns and labels:
ARPE19 cells [1] = assay: Estimation of autophagosome number in RPE cells (GFP-RFP-LC3 puncta); type: cell-based, human; conditions: chloroquine as positive control
Protocol: The cells were then treated with 10^7 vg/ml of an Ad-LCN-2 construct (as described above) for 48 h. […] Confocal images were acquired at 60× using Nikon NIS Elements v5.3(Nikon, Melville NY). 3D spot detection was used to segment positive structures for size, shape and intensity for RFP/GFP, and RFP only puncta were identified.

Cryba1 KO RPE explants = assay: Rescue experiments in RPE explants exposed to FAC and Ad-LCN-2 (Western blot, ROS); type: cell-based, mouse; conditions: pre-treatment, then FAC and Ad-LCN-2
From the text: RPE explant culture was done as previously described (Shang et al., Commun. Biol., 4(1): 850 (2021)). Briefly, eyeballs were enucleated from WT, Cryba1 KO, Sting KO or Sting^GT mice respectively, immediately after euthanasia by putting in CO2 chamber. The posterior eyecups were cut into four petals after the removal of anterior segments and the neural retina was carefully removed. The resulting RPE-Choroid-Sclera (RCS) complexes were flattened onto PVDF membranes with the RPE cells facing up and cultured as previously described. For experiments involving iron regulation, RPE explants from different genotypes were cultured in presence of ferric ammonium citrate (FAC, Sigma Aldrich, RES20400-A702X) at a dose of 250 μM for 72 h (Hadziahmetovic et al., Am. J Pathol., 179(1): 335-48 (2011)); Chothe et al., Biochem. Biophys. Res. Commun., 405(2): 244-9 (2011)), Adenovirus-LCN-2 (10^7 vg/ml, Ad-LCN-2, Vector Biolabs, ADV-263329) construct for 48 h and with or without chloroquine (ChQ; Sigma Aldrich, C6628-25G), a lysosomal blocker at a dose of 50 μM for the last 6 h of the experimental duration. For rescue experiments, Cryba1 KO explants were cultured and pre-treated with either Def (100 μM for 24 h; Sigma Aldrich, D9533-1G) or Sting inhibitor (H-151; 1 μM for 6 hours; Invitrogen, inh-h151) which was followed by FAC and Ad-LCN-2 treatment as explained above.
Whole cells lysates were made from RPE cells harvested from Cryba1^fl/fl or Cryba1 cKO mice or from in vitro RPE flat mount cultures from different experimental conditions as explained previously. The lysates were either made in 1×RIPA buffer (EMD Milipore, Cat #20-188) or NATIVE lysis buffer (Abcam, ab156035) containing 0.1% of a protease inhibitor cocktail (Sigma Aldrich, 13786) and 0.1% phosphatase inhibitor cocktail (Sigma Aldrich, P0044-5ML). The protein extracts were subjected to quantification by using the Pierce BCA Protein Assay Kit (Thermo Fisher, 23225). The RIPA protein samples were mixed with 4× protein sample buffer (Life Technologies, NP0007) containing 5% 2-mercaptoethanol (Sigma Aldrich, M6256) and heated at 95° C. for 10 min to denature. The native protein samples were mixed with NATIVE sample buffer (Bio-Rad, 1610738) at a 1:1 ratio. The native samples were loaded on NATIVE-PAGE gels (Thermo Fisher, BN1002BOX) and run using NATIVE-PAGE running buffer (Thermo Fisher, BN2001). Samples were loaded onto a 4-12% Bis-Tris Nu-PAGE gel (Invitrogen, NP0323BOX) and run with MES buffer (Invitrogen, NP0002). Proteins were transferred to nitrocellulose membranes (Invitrogen, 1B23001), which were then blocked in 5% blocking grade skim milk (Bio-Rad, 170-6404) or 5% BSA (Sigma Aldrich, A3912-50G) for phosphorylated proteins. The membranes were incubated with the appropriate primary antibody overnight followed by horseradish peroxidase-conjugated anti-rabbit (KPL, 074-1506) or anti-mouse (KPL, 074-1806) secondary antibodies for 1 h at RT. A chemiluminescence development technique was utilized to develop the blots (GE Healthcare, RPN2209) and the blots were imaged using the Azure imaging system (Azure Biosystems, USA). […]
The ROS generation in 10-month-old RPE cells from Cryba1^fl/fl and Cryba1 cKO mice was evaluated as described previously (Ghosh et al., Cell Signal., 68: 109521 (2020)). […]

ARPE19 cells [2] = assay: Live cell imaging of lipid peroxidation with liperfluo dye; type: cell-based, human
Protocol: To assess the levels of lipid peroxidation in RPE cells, ARPE19 cells were cultured on four chambered dishes (VWR, 627871) and then either left untreated (control) or treated with 250 μM of ferric ammonium citrate (FAC) for 72 h to mimic the increased iron levels in vivo, followed by Ad-LCN-2 (10^7 vg/ml) for the last 48 h and chloroquine (50 μM) for the last 6 h of the experimental duration respectively. RSL3 (3 μM, overnight; Cayman Chemicals, 19288) was used as a positive control for ferroptosis activation. The clone #6 monoclonal antibody targeting LCN-2 (mAb; 1 μg/ml, 24 h) antibody and 25 μM (overnight) of ferrostatin-1 (Cayman Chemicals, 17729) were added to the culture to rescue ferroptosis induction in the RPE cells. Prior to imaging, the cells were incubated with Liperfluo (10 μM, Fisher Scientific, L24810) for 30 min, and washed twice with PBS before replacing the original media in each chamber. […] Liperfluo was excited using a diode-pumped light engine (SPECTRA X, Lumencor) and detected using an Prime95b sCMOS camera (Photometrics) and excitation and emission filters from Chroma. […] Data was collected and liperfluo emissions were analyzed using NIS Elements (Nikon, Inc. Melville, NY).

ATG4B activity = assay: GFP-LC3-RFP-ΔLC3 construct and flow cytometry (ATG4B-mediated LC3 processing); type: cell-based, human; conditions: recombinant LCN-2 1.0 μg/ml for 24 h; relative to control
Protocol: ARPE19 cells were cultured up to 60% confluency and then transfected with the GFP-LC3-RFP-ΔLC3 construct (Addgene, 84572), to assess ATG4B activity, using the manufacturer's protocol of the Lipofectamine 3000 Transfection Reagent (Thermo Fisher, L3000008) for 72 h (Ghosh et al., Commun. Biol., 4(1): 248 (2021)). The transfection efficiency was confirmed by visualizing the GFP and RFP signals in the transfected cells using a fluorescence microscope. This was followed by infection with an Ad-LCN-2 construct (as described above) for 48 h and treatment with recombinant human LCN-2 protein (R&D Systems, 1757-LC-050) at a dose of 1 μg/ml for 24 h in separate experiments. The cells were then scraped off the plates and were analyzed by flow cytometry using the LSR-II platform ([…]). The results were analyzed using the FlowJo software (v10.8) and the data from each group was represented as the ratio of median GFP fluorescence to RFP fluorescence (Kaizuka et al., Mol. Cell, 64(4): 835-849 (2016); Ghosh et al., Commun. Biol., 4(1): 248 (2021)).

Human ATG4B [3] = target: T1, Human ATG4B (Homo sapiens, UniProt Q9Y4P1); assay: Thermal shift assay with sypro orange; type: binding; conditions: ATG4B incubated with human LCN-2, vs ATG4B only
T1 construct: purchased Abcam ab188707
T1 sequence (Q9Y4P1 1-393): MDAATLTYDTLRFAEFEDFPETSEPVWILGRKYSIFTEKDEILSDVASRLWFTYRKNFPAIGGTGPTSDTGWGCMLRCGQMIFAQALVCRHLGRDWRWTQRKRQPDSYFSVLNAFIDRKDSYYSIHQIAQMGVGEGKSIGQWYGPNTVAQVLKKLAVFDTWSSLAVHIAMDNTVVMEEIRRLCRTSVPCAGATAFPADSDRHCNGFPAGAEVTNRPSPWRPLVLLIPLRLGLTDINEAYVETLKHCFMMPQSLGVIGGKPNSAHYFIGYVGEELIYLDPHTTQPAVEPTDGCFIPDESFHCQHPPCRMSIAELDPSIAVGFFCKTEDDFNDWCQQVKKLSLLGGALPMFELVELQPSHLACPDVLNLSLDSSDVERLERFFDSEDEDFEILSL
Protocol: (§1) Changes in melting temperature (Tm) was assessed to evaluate the binding propensity of LCN-2 and ATG4B. Human ATG4B (Abcam, ab188707) at a dose of 0.5 μg/ml with or without 1 μg/ml of human LCN-2 (R&D Systems, 1757-LC-050) and 5 μM sypro orange (Thermo Fisher, S-6650) were incubated for 30 min at 4° C. The change in Tm was evaluated in a quantitative PCR machine (ABI Systems, USA) using a previously published method (Huynh et al., Curr. Protoc. Protein Sci., 79: 28.9.1-28.9.14 (2015); Layton et al., Protein Sci., 20(8): 1439-50 (2011)).

Human ATG4B [4] = target: T1, Human ATG4B; assay: Cell free ATG4B activity assay (LC3-GST cleavage); type: biochemical; conditions: ATG4B 0.5 μg/ml, LCN-2 1.0 μg/ml, 15 minutes; listed as human recombinant LCN-2
Protocol: ATG4B activity assay was measured by incubating recombinant human LC3-GST (Enzo, BML-UW1155-0500) at a dose of 20 μg/ml with 0.5 μg/ml of human ATG4B (Abcam, ab188707) with or without human LCN-2 (R&D Systems, 1757-LC-050) at a dose of 1 μg/ml for 15 min at room temperature (Pengo et al., Nat. Commun., 8(1): 294 (2017)). The protein samples were then mixed with 4× protein sample buffer (Life Technologies, NP0007) containing 5% 2-mercaptoethanol (Sigma Aldrich, M6256) and heated at 95° C. for 10 min to denature. The samples were then subjected to Western blot using the anti-GST primary antibody (Cell Signaling USA, 2622S) as previously explained (Ghosh et al., J. Pathol., 241(5): 583-588 (2017); Shang et al., Aging Cell, 16(2): 349-359 (2017)).

[5] = target: T2, recombinant human ATG4B (Abcam, ab188707) (human, UniProt Q9Y4P1 1-393, limits assumed); assay: thermal shift assay with sypro orange
T2 construct: Bought recombinant protein; also called human recombinant ATG4B; Autophagy Related 4B Cysteine Peptidase
T2 sequence (looked up): T1 sequence (Q9Y4P1 1-393)
Protocol: FIGS. 2C-2D are line (2C) and dot plot (2D) graphs showing the results of a thermal shift assay. […] The melting temperature is reflective of the change in sypro orange fluorescence (arbitrary units) which was added (5 μM) to each reaction mixture. n=4. All values are Mean±SD. Significant change is indicated by *P<0.05.
as §1

Molecule: CCN(CC)CCCC(C)Nc1ccnc2cc(Cl)ccc12 (stereo not shown) [Chloroquine, chloroquine]
number of puncta (autophagosomes) (ARPE19 cells [1]): highly increased puncta

Molecule: CCc1ccc(NC(=O)Nc2c[nH]c3ccccc23)cc1 [Clone H-151]
STING levels (Western blot) (Cryba1 KO RPE explants): such changes were not observed
cGAS levels (Western blot) (Cryba1 KO RPE explants): such changes were not observed
NLRP3 levels (Western blot) (Cryba1 KO RPE explants; vs vehicle (DMSO)): significantly reduced; also recorded: rescued the levels of NLRP3 inflammasome expression
SOD1 levels (Western blot) (Cryba1 KO RPE explants; vs vehicle (DMSO)): decreased
ROS levels (Cryba1 KO RPE explants; vs vehicle, listed as STING inhibitor): decreased; also recorded: rescued

Molecule: COC(=O)c1ccc([C@@H]2c3[nH]c4ccccc4c3C[C@@H](C(=O)OC)N2C(=O)CCl)cc1 [RSL3, reference compound]
lipid peroxidation (liperfluo emission intensity) (ARPE19 cells [2]; RSL3 alone as positive control, compared to control): induced lipid peroxidation; also recorded: higher iperfluo emission intensity

Molecule: CCOC(=O)c1ccc(NC2CCCCC2)c(N)c1 [ferrostatin-1, reference compound]
lipid peroxidation (liperfluo emission intensity) (ARPE19 cells [2]; ferrostatin-1 pre-treatment of FAC+Ad-LCN-2+Chloroquine (FLC) treated cells): could rescue the lipid peroxidation; also recorded: abrogated the changes

binding result [5]: binds
B1: human recombinant LCN-2 (R&D Systems, 1757-LC-050) (other)
chain: QDSTSDLIPAPPLSKVPLQQNFQDNQFQGKWYVVGLAGNAILREDKDPQKMYATIYELKEDKSYNVTSVLFRKKKCDYWIRTFVPGCQPGEFTLGNIKSYPGLTSYLVRVVSTNYNQHAMVFFKKVSQNREYFKITLYGRTKELTSELKENFIRFSKSLGLPENHIVFPVPIDQCIDG
notes: Bought protein; also called human LCN-2 protein; recombinant human LCN-2
GFP/RFP ratio (LC3 processing/lipidation) (ATG4B activity): GFP fluorescence was increased; also recorded: increase in the GFP/RFP ratio
melting temperature (Tm) shift of ATG4B (Human ATG4B [3]; listed as human LCN-2 protein): increase in melting temperature
melting temperature (Tm) shift of ATG4B (Human ATG4B [3]; listed as human recombinant LCN-2): consistent with binding between the two proteins
ATG4B activity (GST cleavage from LC3-GST, Western blot) (Human ATG4B [4]): Decreased GST cleavage; also recorded: could inhibit LC3 processing through the inhibition of Atg4b activity
